The text below walks through data of patent US9730931B2, “Pyrimidine FGFR4 inhibitors” (priority 2013, dated 2017).

For the data set, the system named is Hep3B xenograft. In kind it is in vivo.

SMILES strings stand for the structures. Read-outs that look alike come from different tables or passages of the source.

Turning to `CCN1CCN(c2ccc(Nc3cc(N(C)C(=O)Nc4c(Cl)c(OC)cc(OC)c4Cl)ncn3)cc2)CC1` [BGJ398], the “Tolerability (health of animals)” value (30 mg/kg orally twice daily) is “did not exhibit poor health”. For the same compound, under “60 mg/kg orally twice daily”, the “Comparative in vivo efficacy” value was “efficacy comparable to compound 108” and the “Tolerability (health of animals)” value is recorded as “terminated on Day 11 due to poor health of animals”.

Turning to `C=CC(=O)Nc1cc(N2CCN(CC)CC2)ccc1Nc1cc(N(C)C(=O)Nc2c(Cl)c(OC)cc(OC)c2Cl)ncn1` [Example 108, N-(2-(6-(3-(2,6-Dichloro-3,5-dimethoxyphenyl)-1-methylureido)-pyrimidin-4-ylamino)-5-(4-ethylpiperazin-1-yl)-phenyl)-acrylamide], the “Comparative in vivo efficacy” value (25, 37.5 or 50 mg/kg i.p. twice daily) is listed as “more efficacious than BGJ398 at tolerable dosage levels”.
